≈ marks a conversion by molar mass, not a printed value.
Experiments:
C. albicans SC5314 = assay: Minimal fungicidal concentration (MFC) against C. albicans; format: cell-based; conditions: Candida albicans, 24 h at 37° C. in PBS, less than 1% survival relative to DMSO control
Method: (§1) Two-fold dilution series of the compounds were prepared in 50% DMSO. 5 μl of these series were added to 95 μl PBS buffer inoculated with 1/500 cells of an overnight culture of either C. albicans, C. glabrata or C. krusei (final DMSO conc 2%). 2% DMSO served as negative control. After 24 h incubation at 37° C. of these cultures with the antifungal compounds in PBS, the cell cultures were plated on YPD agar and colony forming units (CFUs) were determined after incubation of the plates for 2 days. MFC was determined as the minimal concentration of a compound resulting in less than 1% survival of the yeast culture relative to the DMSO control.

C. glabrata = assay: Minimal fungicidal concentration (MFC) against C. glabrata; format: cell-based, Candida glabrata; conditions: Nakaseomyces glabratus; 24 h at 37° C. in PBS; less than 1% survival relative to DMSO control
Method: as §1

A. fumigatus = assay: Minimal inhibitory concentration (MIC) against A. fumigatus; format: cell-based; conditions: Aspergillus fumigatus; minimal concentration that inhibits growth
Aspergillus flavus = assay: Minimal inhibitory concentration (MIC) against A. flavus; format: cell-based; conditions: 24 h at 25° C. in ½ PDB, minimal concentration that inhibits growth
Method: (§2) To determine the MIC and MFC of a compound against Aspergillus flavus, Fusarium oxysporum or F. culmorum, a 2-fold dilution series of the compounds of the invention was incubated with the corresponding spore suspension in ½ PDB (potato dextrose broth, Difco) (2×10^4 spores/ml). […] MFC was determined as the minimal concentration of a compound resulting in less than 1% survival of the fungal culture relative to the DMSO control.

Fusarium oxysporum = assay: Minimal inhibitory concentration (MIC) against F. oxysporum; format: cell-based; conditions: 24 h at 25° C. in ½ PDB, minimal concentration that inhibits growth
Method: as §2

HepG2 cells = assay: Cellular cytostatic and/or cytotoxic effect on HepG2 cells; format: cell-based
Method: Evaluation of the cytostatic and/or cytotoxic effect of compounds on certain specific eukaryotic cells is a standard procedure and well known to the person skilled in the art. The effect of a selection of compounds of the invention on the proliferation of HepG2 cells was measured.

Row | Structure (SMILES) | MFC (C. albicans SC5314) | MFC (C. glabrata) | MIC (A. fumigatus) | MIC (Aspergillus flavus) | MIC (Fusarium oxysporum) | LD30 48 h (lethal dose for 30% of the cells in culture) (HepG2 cells)
1 | CCN1CC(C)(C)OC(=O)C1CC(=O)NCc1cccs1 (stereo not drawn) [CPD-22, 2-(4-ethyl-6,6-dimethyl-2-oxomorpholin-3-yl)-N-(thiophen-2-ylmethyl)acetamide] | 25 µg/mL (≈ 80.5 µM) | 50 µg/mL (≈ 161 µM) | 25 µg/mL (≈ 80.5 µM) | 50 µg/mL (≈ 161 µM) | 50 µg/mL (≈ 161 µM) | >25 µM
2 | CCN1CC(C)(C)OC(=O)C1CC(=O)NCCc1ccccc1 (stereo not drawn) [CPD-18, 2-(4-ethyl-6,6-dimethyl-2-oxomorpholin-3-yl)-N-phenethylacetamide] | 25 µg/mL (≈ 78.5 µM) | 50 µg/mL (≈ 157 µM) | 6.25 µg/mL (≈ 19.6 µM) | 25 µg/mL (≈ 78.5 µM) | > 50 µg/mL | –
3 | CCN1CC(C)(C)OC(=O)C1CC(=O)Nc1ccc2c(ccn2C)c1 (stereo not drawn) [CPD-07, 2-(4-ethyl-6,6-dimethyl-2-oxomorpholin-3-yl)-N-(1-methyl-1H-indol-5-yl)acetamide] | 12.5 µg/mL (≈ 36.4 µM) | 50 µg/mL (≈ 146 µM) | 3.12 µg/mL (≈ 9.1 µM) | 25 µg/mL (≈ 72.8 µM) | 50 µg/mL (≈ 146 µM) | >25 µM
4 | CCN1CC(C)(C)OC(=O)C1CC(=O)NCc1ccccc1 (stereo not drawn) [CPD-12, N-benzyl-2-(4-ethyl-6,6-dimethyl-2-oxomorpholin-3-yl)acetamide] | 12.5 µg/mL (≈ 41.1 µM) | 25 µg/mL (≈ 82.1 µM) | 12.5 µg/mL (≈ 41.1 µM) | 50 µg/mL (≈ 164 µM) | > 50 µg/mL | –
5 | CCN1CC(C)(C)OC(=O)C1CC(=O)NCc1ccc(C)cc1 (stereo not drawn) [CPD-76, 2-(4-ethyl-6,6-dimethyl-2-oxomorpholin-3-yl)-N-(4-methylbenzyl)acetamide] | 25 µg/mL (≈ 78.5 µM) | 6.25 µg/mL (≈ 19.6 µM) | 3.12 µg/mL (≈ 9.81 µM) | 25 µg/mL (≈ 78.5 µM) | > 25 µg/mL | –
6 | CCN1CC(C)(C)OC(=O)C1CC(=O)NCc1ccc(Cl)cc1 (stereo not drawn) [CPD-08, N-(4-chlorobenzyl)-2-(4-ethyl-6,6-dimethyl-2-oxomorpholin-3-yl)acetamide] | 12.5 µg/mL (≈ 36.9 µM) | 12.5 µg/mL (≈ 36.9 µM) | 6.25 µg/mL (≈ 18.4 µM) | 25 µg/mL (≈ 73.8 µM) | 50 µg/mL (≈ 148 µM) | >25 µM
7 | CCN1CC(C)(C)OC(=O)C1CC(=O)NC1CCN(Cc2ccccc2)CC1 (stereo not drawn) [CPD-14, N-(1-benzylpiperidin-4-yl)-2-(4-ethyl-6,6-dimethyl-2-oxomorpholin-3-yl)acetamide] | 25 µg/mL (≈ 64.5 µM) | > 50 µg/mL | > 50 µg/mL | > 50 µg/mL | > 50 µg/mL | –
8 | CCN1CC(C)(C)OC(=O)C1CC(=O)NC1CCc2ccccc21 (stereo not drawn) [CPD-09, N-(2,3-dihydro-1H-inden-1-yl)-2-(4-ethyl-6,6-dimethyl-2-oxomorpholin-3-yl)acetamide] | 25 µg/mL (≈ 75.7 µM) | 50 µg/mL (≈ 151 µM) | 50 µg/mL (≈ 151 µM) | > 50 µg/mL | > 50 µg/mL | –
9 | CCN1CC(C)(C)OC(=O)C1CC(=O)NCc1cccc(OC)c1 (stereo not drawn) [CPD-80, 2-(4-ethyl-6,6-dimethyl-2-oxomorpholin-3-yl)-N-(3-methoxybenzyl)acetamide] | 25 µg/mL (≈ 74.8 µM) | 12.5 µg/mL (≈ 37.4 µM) | 6.25 µg/mL (≈ 18.7 µM) | > 25 µg/mL | > 25 µg/mL | –
10 | CCN1CC(C)(C)OC(=O)C1CC(=O)NCC(F)(F)F (stereo not drawn) [CPD-39, 2-(4-ethyl-6,6-dimethyl-2-oxomorpholin-3-yl)-N-(2,2,2-trifluoroethyl)acetamide] | 50 µg/mL (≈ 169 µM) | > 50 µg/mL | 25 µg/mL (≈ 84.4 µM) | > 50 µg/mL | > 50 µg/mL | –
11 | CCN1CC(C)(C)OC(=O)C1CC(=O)Nc1ccc2scnc2c1 (stereo not drawn) [CPD-10, N-(benzo[d]thiazol-5-yl)-2-(4-ethyl-6,6-dimethyl-2-oxomorpholin-3-yl)acetamide] | > 50 µg/mL | > 50 µg/mL | 12.5 µg/mL (≈ 36 µM) | > 50 µg/mL | > 50 µg/mL | –
12 | CCCNC(=O)CC1C(=O)OC(C)(C)CN1CC (stereo not drawn) [CPD-36, 2-(4-ethyl-6,6-dimethyl-2-oxomorpholin-3-yl)-N-propylacetamide] | 25 µg/mL (≈ 97.5 µM) | > 50 µg/mL | 50 µg/mL (≈ 195 µM) | > 50 µg/mL | > 50 µg/mL | –
13 | CCN1CC(C)(C)OC(=O)C1CC(=O)NCc1ccccc1OC (stereo not drawn) [CPD-79, 2-(4-ethyl-6,6-dimethyl-2-oxomorpholin-3-yl)-N-(2-methoxybenzyl)acetamide] | > 25 µg/mL | 25 µg/mL (≈ 74.8 µM) | 12.5 µg/mL (≈ 37.4 µM) | > 25 µg/mL | > 25 µg/mL | –
14 | CCN1CC(C)(C)OC(=O)C1CC(=O)NCc1cccc(Cl)c1 (stereo not drawn) [CPD-49, N-(3-chlorobenzyl)-2-(4-ethyl-6,6-dimethyl-2-oxomorpholin-3-yl)acetamide] | 6.25 µg/mL (≈ 18.4 µM) | 6.25 µg/mL (≈ 18.4 µM) | 3.12 µg/mL (≈ 9.22 µM) | 50 µg/mL (≈ 148 µM) | 50 µg/mL (≈ 148 µM) | >25 µM
15 | CCN1CC(C)(C)OC(=O)C1CC(=O)NCc1c(Cl)cccc1Cl (stereo not drawn) [CPD-51, N-(2,6-dichlorobenzyl)-2-(4-ethyl-6,6-dimethyl-2-oxomorpholin-3-yl)acetamide] | 12.5 µg/mL (≈ 33.5 µM) | 25 µg/mL (≈ 67 µM) | 12.5 µg/mL (≈ 33.5 µM) | 50 µg/mL (≈ 134 µM) | 50 µg/mL (≈ 134 µM) | >25 µM
16 | CCN1CC(C)(C)OC(=O)C1CC(=O)NCc1ccccc1-c1ccccc1 (stereo not drawn) [CPD-81, N-(biphenyl-2-ylmethyl)-2-(4-ethyl-6,6-dimethyl-2-oxomorpholin-3-yl)acetamide] | 12.5 µg/mL (≈ 32.9 µM) | 12.5 µg/mL (≈ 32.9 µM) | 3.12 µg/mL (≈ 8.21 µM) | 25 µg/mL (≈ 65.7 µM) | 25 µg/mL (≈ 65.7 µM) | –
17 | CCN1CC(C)(C)OC(=O)C1CC(=O)NCc1ccc(Cl)c(Cl)c1 (stereo not drawn) [CPD-50, N-(3,4-dichlorobenzyl)-2-(4-ethyl-6,6-dimethyl-2-oxomorpholin-3-yl)acetamide] | 12.5 µg/mL (≈ 33.5 µM) | 3.12 µg/mL (≈ 8.36 µM) | 1.6 µg/mL (≈ 4.29 µM) | 6.25 µg/mL (≈ 16.7 µM) | 25 µg/mL (≈ 67 µM) | –
18 | CCN1CC(C)(C)OC(=O)C1CC(=O)NCC1CCCCC1 (stereo not drawn) [CPD-47, N-(cyclohexylmethyl)-2-(4-ethyl-6,6-dimethyl-2-oxomorpholin-3-yl)acetamide] | 25 µg/mL (≈ 80.5 µM) | 6.25 µg/mL (≈ 20.1 µM) | 25 µg/mL (≈ 80.5 µM) | 50 µg/mL (≈ 161 µM) | > 50 µg/mL | –
19 | CCN1CC(C)(C)OC(=O)C1CC(=O)NCCC(C)(C)C (stereo not drawn) [CPD-38, N-(3,3-dimethylbutyl)-2-(4-ethyl-6,6-dimethyl-2-oxomorpholin-3-yl)acetamide] | 25 µg/mL (≈ 83.8 µM) | 12.5 µg/mL (≈ 41.9 µM) | 50 µg/mL (≈ 168 µM) | 50 µg/mL (≈ 168 µM) | 50 µg/mL (≈ 168 µM) | –
20 | CC(C)c1ccc(NC(=O)CC2C(=O)OC(C)(C)CN2S(C)(=O)=O)cc1 (stereo not drawn) [CPD-75, 2-(6,6-dimethyl-4-(methylsulfonyl)-2-oxomorpholin-3-yl)-N-(4-isopropylphenyl)acetamide] | > 25 µg/mL | > 25 µg/mL | 12.5 µg/mL (≈ 32.7 µM) | > 25 µg/mL | > 25 µg/mL | –

Reference: US20120252801A1, “ANTIFUNGAL COMPOUNDS” (Katholieke Universiteit Leuven, K.U.Leuven R&D, priority 2009, published 2012)
